Legend:
SARS-CoV-2 variants = assay: microbe, parasite or virus in culture; assay type: cell-based
SARS-CoV-2 variant D614G = assay type: cell-based

Structure (SMILES): O=C(c1ccc(OCCN2CCCCC2)cc1)c1c(-c2ccc(O)cc2)sc2cc(O)ccc12 [Raloxifene, 1-[6-hydroxy-2-(4-hydroxyphenyl)benzo[b]thien-3-yl]-1-[4-[2-(1-piperidinyl)ethoxy]phenyl]methanone]
- IC50 (SARS-CoV-2 variants; Severe acute respiratory syndrome coronavirus 2, Vero C1008, read-out: IC50 calculated on recovering of cell viability): 4.5 to 7.99 µM
- recovery of viability in infected Vero E6 cells (SARS-CoV-2 variants; all the tested viral variants): able to recover viability
- IC50 (SARS-CoV-2 variant D614G): 7.48 µM
